Measurements as given in article PMC5862592, “CDK8/19 inhibition induces premature G1/S transition and ATR-dependent cell death in prostate cancer cells” (Oncotarget, 2018).
Like-named read-outs stand apart in the source and are kept apart here.

What was measured:
Assay in all cases: biochemical
Set-up in all cases: KINOMEscan active site-directed competition binding assay (DiscoveRx), 456 kinases, per cent of control at 300 nM
Conditions in all cases: read-out: Percent of Control (%)
[1] = biological target: T1, RIPK5 (Homo sapiens, UniProt Q6XUX3)
T1 construct: gene DSTYK
Summary of the method: (§1)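 Compounds at 300 nmol/L screened against 456 kinases by KINOMEscan, a competition binding assay measuring displacement at the kinase active site.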

[2] = biological target: PLK3 (Homo sapiens, UniProt Q9H4B4)
Summary of the method: as §1

[3] = biological target: TSSK1B (Homo sapiens, UniProt Q9BXA7)
Summary of the method: as §1

[4] = biological target: PRKX (Homo sapiens, UniProt P51817)
Summary of the method: as §1

[5] = biological target: RIOK2 (Homo sapiens, UniProt Q9BVS4)
Summary of the method: as §1

[6] = biological target: T2, LKB1 (Homo sapiens, UniProt Q15831)
T2 construct: gene STK11
Summary of the method: as §1

[7] = biological target: MET(M1250T) (Homo sapiens, UniProt P08581, M1250T)
Summary of the method: as §1

[8] = biological target: T3, JNK3 (Homo sapiens, UniProt P53779)
T3 construct: gene MAPK10
Summary of the method: as §1

[9] = biological target: T4, MST3 (Homo sapiens, UniProt Q9Y6E0)
T4 construct: gene STK24
Summary of the method: as §1

[10] = biological target: SGK3 (Homo sapiens, UniProt Q96BR1)
Summary of the method: as §1

[11] = biological target: FER (Homo sapiens, UniProt P16591)
Summary of the method: as §1

[12] = biological target: CDK3 (Homo sapiens, UniProt Q00526)
Summary of the method: as §1

[13] = biological target: PHKG1 (Homo sapiens, UniProt Q16816)
Summary of the method: as §1

[14] = biological target: EPHA6 (Homo sapiens, UniProt Q9UF33)
Summary of the method: as §1

[15] = biological target: T5, ADCK3 (Homo sapiens, UniProt Q8NI60)
T5 construct: gene COQ8A
Summary of the method: as §1

[16] = biological target: MELK (Homo sapiens, UniProt Q14680)
Summary of the method: as §1

[17] = biological target: NEK9 (Homo sapiens, UniProt Q8TD19)
Summary of the method: as §1

[18] = biological target: TBK1 (Homo sapiens, UniProt Q9UHD2)
Summary of the method: as §1

[19] = biological target: SRMS (Homo sapiens, UniProt Q9H3Y6)
Summary of the method: as §1

[20] = biological target: SNRK (Homo sapiens, UniProt Q9NRH2)
Summary of the method: as §1

[21] = biological target: HCK (Homo sapiens, UniProt P08631)
Summary of the method: as §1

[22] = biological target: T6, BRK (Homo sapiens, UniProt Q13882)
T6 construct: gene PTK6
Summary of the method: as §1

T6 sequence (Q13882 whole entry): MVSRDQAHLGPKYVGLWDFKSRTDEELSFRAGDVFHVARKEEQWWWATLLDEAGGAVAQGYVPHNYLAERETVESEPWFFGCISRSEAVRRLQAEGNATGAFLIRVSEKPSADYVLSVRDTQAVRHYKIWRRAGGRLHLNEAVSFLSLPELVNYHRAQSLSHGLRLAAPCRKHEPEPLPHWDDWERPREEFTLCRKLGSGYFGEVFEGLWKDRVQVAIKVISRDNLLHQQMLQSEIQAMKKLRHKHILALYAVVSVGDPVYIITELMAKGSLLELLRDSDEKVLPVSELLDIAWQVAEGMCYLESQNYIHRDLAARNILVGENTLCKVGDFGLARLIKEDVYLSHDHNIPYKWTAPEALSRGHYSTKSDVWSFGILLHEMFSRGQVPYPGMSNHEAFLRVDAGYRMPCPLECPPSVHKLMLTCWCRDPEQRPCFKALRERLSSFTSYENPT
Chain of TSSK1B (Q9BXA7 whole entry): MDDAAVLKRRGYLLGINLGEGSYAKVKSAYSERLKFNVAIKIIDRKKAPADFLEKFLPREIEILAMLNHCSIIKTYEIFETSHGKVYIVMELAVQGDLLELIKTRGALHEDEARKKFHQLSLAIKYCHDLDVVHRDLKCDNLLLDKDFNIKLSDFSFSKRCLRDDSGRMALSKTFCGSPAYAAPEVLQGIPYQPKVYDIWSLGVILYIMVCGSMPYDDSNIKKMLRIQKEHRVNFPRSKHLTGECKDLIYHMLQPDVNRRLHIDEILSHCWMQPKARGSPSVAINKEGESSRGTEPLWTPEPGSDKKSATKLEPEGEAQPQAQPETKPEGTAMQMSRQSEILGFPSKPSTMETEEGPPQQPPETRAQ
Chain of SGK3 (Q96BR1 whole entry): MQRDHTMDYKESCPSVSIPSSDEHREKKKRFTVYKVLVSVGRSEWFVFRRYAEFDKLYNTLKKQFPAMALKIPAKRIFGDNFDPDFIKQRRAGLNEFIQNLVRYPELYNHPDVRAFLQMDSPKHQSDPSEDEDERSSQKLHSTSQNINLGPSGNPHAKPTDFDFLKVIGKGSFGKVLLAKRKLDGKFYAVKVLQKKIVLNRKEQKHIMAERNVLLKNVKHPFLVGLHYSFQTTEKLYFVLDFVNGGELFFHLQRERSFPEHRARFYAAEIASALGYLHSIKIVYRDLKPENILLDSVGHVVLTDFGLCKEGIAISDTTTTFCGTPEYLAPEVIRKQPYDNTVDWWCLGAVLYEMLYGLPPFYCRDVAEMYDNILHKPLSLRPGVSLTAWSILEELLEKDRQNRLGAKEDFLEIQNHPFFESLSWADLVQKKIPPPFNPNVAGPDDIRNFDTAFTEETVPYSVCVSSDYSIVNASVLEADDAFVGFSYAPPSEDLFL
Chain of TBK1 (Q9UHD2 whole entry): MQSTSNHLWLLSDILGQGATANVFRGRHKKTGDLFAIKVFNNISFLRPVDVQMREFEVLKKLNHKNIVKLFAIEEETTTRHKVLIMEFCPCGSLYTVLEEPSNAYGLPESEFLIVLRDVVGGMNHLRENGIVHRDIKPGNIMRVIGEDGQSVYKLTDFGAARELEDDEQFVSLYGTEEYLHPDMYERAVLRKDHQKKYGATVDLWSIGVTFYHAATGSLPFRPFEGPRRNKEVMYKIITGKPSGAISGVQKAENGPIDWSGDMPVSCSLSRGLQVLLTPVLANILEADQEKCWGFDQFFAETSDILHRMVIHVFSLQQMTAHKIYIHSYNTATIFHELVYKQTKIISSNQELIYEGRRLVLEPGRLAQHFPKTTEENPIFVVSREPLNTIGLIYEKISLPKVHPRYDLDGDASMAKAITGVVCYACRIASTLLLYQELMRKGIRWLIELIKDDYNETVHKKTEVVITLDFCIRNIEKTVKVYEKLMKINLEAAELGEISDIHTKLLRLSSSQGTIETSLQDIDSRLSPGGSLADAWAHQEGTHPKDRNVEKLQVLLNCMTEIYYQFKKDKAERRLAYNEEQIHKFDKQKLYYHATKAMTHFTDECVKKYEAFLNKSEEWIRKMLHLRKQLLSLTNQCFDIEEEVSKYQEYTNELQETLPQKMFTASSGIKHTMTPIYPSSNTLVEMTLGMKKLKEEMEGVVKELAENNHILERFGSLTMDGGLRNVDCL
Chain of RIOK2 (Q9BVS4 whole entry): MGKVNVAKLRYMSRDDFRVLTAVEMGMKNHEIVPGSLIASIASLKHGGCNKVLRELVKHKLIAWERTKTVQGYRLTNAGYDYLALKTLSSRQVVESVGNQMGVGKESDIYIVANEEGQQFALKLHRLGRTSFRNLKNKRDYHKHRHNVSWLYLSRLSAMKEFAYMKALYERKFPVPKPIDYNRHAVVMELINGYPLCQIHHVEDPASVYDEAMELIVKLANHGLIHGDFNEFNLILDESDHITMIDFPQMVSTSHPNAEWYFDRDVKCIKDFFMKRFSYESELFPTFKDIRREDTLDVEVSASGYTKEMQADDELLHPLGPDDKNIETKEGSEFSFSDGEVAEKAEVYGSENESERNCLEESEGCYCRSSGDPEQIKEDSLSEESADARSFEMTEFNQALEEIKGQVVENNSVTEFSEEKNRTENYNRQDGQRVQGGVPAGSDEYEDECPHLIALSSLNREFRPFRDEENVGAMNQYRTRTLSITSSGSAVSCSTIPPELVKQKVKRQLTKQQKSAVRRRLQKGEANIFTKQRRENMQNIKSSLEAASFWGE
Chain of HCK (P08631 whole entry): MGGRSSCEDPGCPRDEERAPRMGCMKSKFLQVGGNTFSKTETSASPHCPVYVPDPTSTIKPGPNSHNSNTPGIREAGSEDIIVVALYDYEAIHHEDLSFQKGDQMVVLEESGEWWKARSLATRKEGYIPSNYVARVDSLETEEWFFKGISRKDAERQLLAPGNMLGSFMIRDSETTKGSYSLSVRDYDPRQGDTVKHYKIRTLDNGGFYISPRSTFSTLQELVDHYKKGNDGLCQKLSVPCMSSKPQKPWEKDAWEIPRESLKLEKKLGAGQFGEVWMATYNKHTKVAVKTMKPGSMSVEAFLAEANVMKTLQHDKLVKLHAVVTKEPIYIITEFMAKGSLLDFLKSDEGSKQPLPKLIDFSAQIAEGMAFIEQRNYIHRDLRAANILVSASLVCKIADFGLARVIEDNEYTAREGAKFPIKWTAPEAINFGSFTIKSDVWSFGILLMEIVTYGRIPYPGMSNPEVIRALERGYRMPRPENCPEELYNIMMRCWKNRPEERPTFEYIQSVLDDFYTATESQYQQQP
T4 sequence (Q9Y6E0 whole entry): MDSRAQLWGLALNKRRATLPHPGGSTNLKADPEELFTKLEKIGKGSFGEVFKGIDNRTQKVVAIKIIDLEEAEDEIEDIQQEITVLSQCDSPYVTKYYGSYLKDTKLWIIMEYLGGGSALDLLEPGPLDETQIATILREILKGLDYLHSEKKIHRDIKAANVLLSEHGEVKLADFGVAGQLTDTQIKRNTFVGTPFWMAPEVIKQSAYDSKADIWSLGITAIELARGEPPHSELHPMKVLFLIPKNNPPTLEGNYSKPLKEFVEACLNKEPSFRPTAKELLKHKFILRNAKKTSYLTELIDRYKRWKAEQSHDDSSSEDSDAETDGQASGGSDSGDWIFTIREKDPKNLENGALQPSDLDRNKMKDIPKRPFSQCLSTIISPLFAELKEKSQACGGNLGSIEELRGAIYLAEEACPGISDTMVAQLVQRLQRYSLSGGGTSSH
T1 sequence (Q6XUX3 whole entry): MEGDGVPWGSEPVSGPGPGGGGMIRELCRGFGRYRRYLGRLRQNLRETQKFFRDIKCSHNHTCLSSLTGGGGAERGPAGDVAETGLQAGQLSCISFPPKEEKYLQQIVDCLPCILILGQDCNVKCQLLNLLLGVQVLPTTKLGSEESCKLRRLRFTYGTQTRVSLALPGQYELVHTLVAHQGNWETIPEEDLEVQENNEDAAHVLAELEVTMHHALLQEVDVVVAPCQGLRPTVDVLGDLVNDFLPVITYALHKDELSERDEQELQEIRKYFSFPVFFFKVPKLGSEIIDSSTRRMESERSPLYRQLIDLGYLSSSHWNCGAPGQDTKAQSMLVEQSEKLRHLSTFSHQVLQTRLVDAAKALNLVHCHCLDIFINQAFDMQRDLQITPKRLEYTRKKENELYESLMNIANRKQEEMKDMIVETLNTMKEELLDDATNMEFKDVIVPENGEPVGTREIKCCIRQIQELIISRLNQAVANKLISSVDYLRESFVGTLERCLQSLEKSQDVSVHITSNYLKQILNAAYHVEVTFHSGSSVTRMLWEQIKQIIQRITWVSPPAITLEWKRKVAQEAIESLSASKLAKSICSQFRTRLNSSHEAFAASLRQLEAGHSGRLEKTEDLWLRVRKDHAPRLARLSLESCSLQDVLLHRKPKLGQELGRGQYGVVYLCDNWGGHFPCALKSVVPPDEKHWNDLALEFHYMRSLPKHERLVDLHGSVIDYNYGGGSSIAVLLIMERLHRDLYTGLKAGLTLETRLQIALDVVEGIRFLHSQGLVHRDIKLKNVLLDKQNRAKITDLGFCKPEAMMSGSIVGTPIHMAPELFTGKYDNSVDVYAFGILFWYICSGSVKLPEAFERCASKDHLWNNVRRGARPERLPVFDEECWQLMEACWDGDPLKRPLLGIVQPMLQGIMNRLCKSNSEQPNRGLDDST
Chain of CDK3 (Q00526 whole entry): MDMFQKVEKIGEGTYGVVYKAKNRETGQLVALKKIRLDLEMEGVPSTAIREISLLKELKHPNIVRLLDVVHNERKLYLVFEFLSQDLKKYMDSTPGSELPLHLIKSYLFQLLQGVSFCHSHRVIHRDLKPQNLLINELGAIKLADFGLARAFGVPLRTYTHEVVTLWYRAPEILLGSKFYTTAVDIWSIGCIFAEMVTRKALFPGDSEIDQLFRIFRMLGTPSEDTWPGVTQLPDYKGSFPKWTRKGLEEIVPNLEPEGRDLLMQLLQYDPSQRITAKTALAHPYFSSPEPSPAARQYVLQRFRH

Cc1ncccc1Oc1sc(C(N)=O)c2c1-c1c(cnn1C)CC2 [T-474, 1-methyl-8-((2-methylpyridin-3-yl)oxy)-4,5-dihydro-1H-thieno[3,4-g]indazole-6-carboxamide]
remaining binding at 0.3 µM [1]: 100%
remaining binding at 0.3 µM [2]: 88%
remaining binding at 0.3 µM [3]: 100%
remaining binding at 0.3 µM [4]: 100%
remaining binding at 0.3 µM [5]: 87%
remaining binding at 0.3 µM [6]: 67%
remaining binding at 0.3 µM [7]: 100%
remaining binding at 0.3 µM [8]: 97%
remaining binding at 0.3 µM [9]: 100%
remaining binding at 0.3 µM [10]: 61%
remaining binding at 0.3 µM [11]: 90%
remaining binding at 0.3 µM [12]: 100%
remaining binding at 0.3 µM [13]: 100%
remaining binding at 0.3 µM [14]: 100%
remaining binding at 0.3 µM [15]: 90%
remaining binding at 0.3 µM [16]: 71%
remaining binding at 0.3 µM [17]: 100%
remaining binding at 0.3 µM [18]: 67%
remaining binding at 0.3 µM [19]: 100%
remaining binding at 0.3 µM [20]: 71%
remaining binding at 0.3 µM [21]: 100%
remaining binding at 0.3 µM [22]: 100%

O=C(/C=C/c1cnccc1-c1ccc(F)cc1)Nc1ccc(CCc2nnco2)cc1 [T-418, (2E)-3-(4-(4-fluorophenyl)pyridin-3-yl)-N-(4-(2-(1,3,4-oxadiazol-2-yl)ethyl)phenyl)acrylamide]
remaining binding at 0.3 µM ([1]; sheet T-418): 86%
remaining binding at 0.3 µM ([2]; sheet T-418): 82%
remaining binding at 0.3 µM ([3]; sheet T-418): 100%
remaining binding at 0.3 µM ([4]; sheet T-418): 100%
remaining binding at 0.3 µM ([5]; sheet T-418): 99%
remaining binding at 0.3 µM ([6]; sheet T-418): 53%
remaining binding at 0.3 µM ([7]; sheet T-418): 97%
remaining binding at 0.3 µM ([8]; sheet T-418): 94%
remaining binding at 0.3 µM ([9]; sheet T-418): 100%
remaining binding at 0.3 µM ([10]; sheet T-418): 62%
remaining binding at 0.3 µM ([11]; sheet T-418): 98%
remaining binding at 0.3 µM ([12]; sheet T-418): 95%
remaining binding at 0.3 µM ([13]; sheet T-418): 90%
remaining binding at 0.3 µM ([14]; sheet T-418): 100%
remaining binding at 0.3 µM ([15]; sheet T-418): 100%
remaining binding at 0.3 µM ([16]; sheet T-418): 100%
remaining binding at 0.3 µM ([17]; sheet T-418): 100%
remaining binding at 0.3 µM ([18]; sheet T-418): 75%
remaining binding at 0.3 µM ([19]; sheet T-418): 100%
remaining binding at 0.3 µM ([20]; sheet T-418): 73%
remaining binding at 0.3 µM ([21]; sheet T-418): 100%
remaining binding at 0.3 µM ([22]; sheet T-418): 87%
